Measurements published in US7094602B2, “Method for cell culture” (Fuji Photo Film Co, Ltd., priority 2002, dated 2006).

Experiments:
[1] = tested on: CHL (Chinese Hamster Lung Cell); test: Detachment of cultured cell layer from carrier for cell culture (Example 2); assay type: cell-based; conditions: time required to detach CHL cell layer from calcium alginate/collagen carrier on immersion; MEM with EDTA, 3 g/l HMPA or 3 mM HEDP
Protocol: • Used cell: CHL (Chinese Hamster Lung Cell) • Used medium: Eagle's minimum medium containing 10% bovine fetal serum Carrier for Cell Culture: The carrier for cell culture prepared in Example 1, adhered to bottom surfaces of polystyrene cell culture dishes with double-sided tapes, and a polystyrene cell culture dishes alone as a comparative example were subjected to UV sterilization or electron beam sterilization. The operation, wherein the medium was added to the dishes to immerse the carrier for cell cultures for 5 minutes and then the medium was exchanged, was repeated three times, and then the dishes were left overnight to allow the medium to infiltrate into the carriers for cell culture. The calls cultured beforehand were collected by trypsin treatment, and the cell density was adjusted to 50,000 cells/ml. After the medium in the cells and dishes was discarded, the cell suspension was inoculated into the dishes at a cell number of 10,000 cells/cm^2, and then the medium was added. Thereafter, the cells were cultured at 37° C. for two days by using a CO2 incubator. The samples obtained by the culture were immersed in each of the following seven kinds of detachment solutions and non-detachment solutions, and then the cell layers were pulled with a pair of tweezers to examine state of detachment of the cell layers from the carriers for cell culture. A period of time required for the detachment of each cell layer was measured. Then, the cell sheets detached with an immersion time in a detachment solution of 30 minutes was placed on a polystyrene cell culture dish, added with the medium and cultured at 37° C. for one day by using a CO2 incubator. The cells were stained with trypan blue and observed under an optical microscope. The use of detachment agents of the present invention provided favorable detachment characteristics, that is, high survival rate of the cells and non-stimulative property (i.e., no cell deformation due to stimulation) was successfully confirmed. […]

[2] = tested on: HepG2 (human liver cancer derived cells) laminated on BRL (Buffalo Rat Liver 3A); test: Lamination of cell layers, cytochrome P-450 3A metabolism of BFC to HFC (Example 4); assay type: cell-based; conditions: HepG2 layer transferred on BRL with the detachment solution; cultured 90 hours, BFC added, cultured two days
Protocol: In the same manner as that of Example 2, HepG2 (human liver cancer derived cells) was cultured on the carrier for cell culture of Example 1, and BRL (Buffalo Rat Liver 3A, ATCC No. CRL 1442) was cultured on a polystyrene cell culture dish. Cell layers were transferred on the cells cultured on the dishes by using the detachment solution (v) mentioned in Example 2 in the same manner as that of Example 3 to obtain laminated cells.

[3] = tested on: CHL (Chinese Hamster Lung Cell); assay type: cell-based; conditions: cell layer transfer with weighting 0.8 g/cm^2, immersion 10 minutes, culture one day, immersion 20 minutes; for State of cells after detachment: Morphology of survived cells: optical microscope; for State of cells after detachment: Survival rate: trypan blue
Source text: The samples obtained by the culture on the carriers for cell culture in Example 2 were taken out together with the carriers for cell culture, and placed on polystyrene cell culture dishes in such a manner that the cell layer surfaces contacted with the dishes, and foamed urethane filters having a thickness of 3 mm and stainless steel plates were placed thereon in this order. The weight of each stainless steel plate was adjusted so that the total weight including the weight of the urethane filter became 0.8 g/cm^2. Then, the samples were immersed in the detachment solution (iii), (iv) or (v) mentioned in Example 2 for 10 minutes, and after the solution was replaced with the medium, culture was performed at 37° C. for one day by using a CO2 incubator. The cultures were immersed in the same detachment solutions for 20 minutes, and then the carriers for cell culture were detached by pulling with a pair of tweezers. Then, the solutions were replaced with the medium, and culture was continued at 37° C. for one day by using a CO2 incubator. The cells were stained with trypan blue and then observed under an optical microscope. Favorable results were obtained with the detachment solutions of the present invention. In the sample where the weight was applied only by using the stainless steel plates without using the […] and the sample where the detachment solution (i) was used, the cells died during the transfer operation. Further, in the sample where the detachment solution (ii) was used, transfer was not successful.

CHL cells = test: Influence of chelating agent on cultured cells (Example 5); assay type: cell-based, Chinese Hamster; conditions: cultured two days at 37° C. in the medium, 1.5 mM EDTA, GEDTA, DTPA, EDTPO, 3 g/l HMPA, 3 mM HEDP
Protocol: CHL cells cultured beforehand were collected by trypsinization, and the cell density was adjusted to 50000 cells/ml. This cell suspension was inoculated on a polystyrene cell culture dish at a cell number of 10000 cells/cm^2, and each of the following media was added. Then, the cells were cultured at 37° C. for two days by using a CO2 incubator. The results of evaluation of stimulative property on the cells based on morphology and proliferation property of the cultured cells are shown in Table 3. The results are represented by using the result obtained for the cells cultured with the medium a mention d in the table as a standard. […] Eagle's minimum medium (MEM) • Medium b: […] MEM added with 1.5 mM diethylenetriamine-N,N,N′,N,N-pentaacetic acid (DTPA) • Medium e: MEM added with 3 g/l of sodium hexametaphosphate (HMPA) • Medium f: […] MEM added with 1.5 mM ethylenediamine-N,N,N′,N′-tetrakis(methylenephosphoric acid) (EDTPO) As for the media b to f, pH was adjusted to that of the medium a with NaOH or HCl after the chemicals were added.

CC(O)(P(=O)(O)O)P(=O)(O)O [(v) MEM + HEDP, 1-hydroxyethane-1,1-diphosphoric acid]
Detachment time [1]: 20 min | HFC produced through metabolism by cytochrome P-450 3A in laminated cells (fluorescence microscope) [2]: Fluorescence derived from HFC was observed in the portions of HepG2 | State of cells after detachment: Morphology of survived cells [3]: Not deformed | State of cells after detachment: Survival rate [3]: 90% or more

O=C(O)CN(CCN(CC(=O)O)CC(=O)O)CC(=O)O [(iii) MEM + EDTA, EDTA]
Detachment time [1]: 15 min | State of cells: Morphology (CHL cells): X (30% or less of not rounded cells are indicated with X) | State of cells: Proliferation rate (CHL cells; relative to medium a (MEM)): X (degradation to 70% or less is indicated with X)

O=P1([O-])OP(=O)([O-])OP(=O)([O-])OP(=O)([O-])OP(=O)([O-])OP(=O)([O-])O1.[Na+].[Na+].[Na+].[Na+].[Na+].[Na+] [(iv) MEM + HMPA, sodium hexametaphosphate]
Detachment time [1]: 10 min | State of cells after detachment: Morphology of survived cells [3]: Not deformed | State of cells after detachment: Survival rate [3]: 90% or more
